Marks after values point to notes of the source that are not given here.
How the values were obtained:
[1] = test system: tumor-bearing mice (mice ascites tumor s180 cells); assay: Effect on chemotherapy-induced bone marrow suppression in tumor-bearing mice (routine blood test); type: in vivo, Kunming mice; details: after 10 days once daily, docetaxel 75 mg/m^2/d iv, Tegafur/Gimeracil/Oteracil capsules 222.2 mg/m^2/d intragastric, icaritin 10 mg/kg/d iv
Procedure: Mice ascites tumor s180 cells were conventionally incubated in 1640 culture medium, at 37° C., 5% CO2, and passaged once every two days in average. The cells in the logarithmic growth phase were prepared into a single-cell suspension having a density of 3.0×10^7 cells/ml with normal saline, which was injected into the abdominal cavities of mice under sterile conditions. Seven days after inoculation, significant swelling of the abdominal cavities of mice can be seen. As this time, the mice were executed by cervical vertebra luxation, put into a beaker containing 75% ethanol and soaked for 2-3 minutes. The sterilized mice were placed into an ultraclean bench, and the abdomens were exposed. The ascites was drawn with a sterile syringe and put into a sterile reagent bottle for further use. The above ascites was counted with trypan blue, diluted with normal saline to adjust to 2.0×10^7 cells/ml, and inoculated at the right armpit of the mice with 0.2 ml for each mouse. The inoculated mice were randomly divided into 6 groups, with 10 animals in each group and half male and half female. Group 1, the model control group: the test animals were intraperitoneally injected with0.9% normal saline (same for the following experiments); Group 2, the docetaxel group: 75 mg/m^2/d of docetaxel; Group 3, the Tegafur, Gimeracil and Oteracil Potassium Capsules group: 222.2 mg/m^2/d of Tegafur, Gimeracil and Oteracil Potassium Capsules; Group 4, the icaritin group: 10 mg/kg/d of the icaritin microemulsion formulation; Group 5, the D+I group (docetaxel+icaritin group): 75 mg/m^2/d of docetaxel+[…] of icaritin; Group 6, the T +I group (Tegafur, Gimeracil and Oteracil Potassium Capsules+icaritin group): 222.2 mg/m^2/d of Tegafur, Gimeracil and Oteracil Potassium Capsules+10 mg/kg/d of icaritin. Docetaxel and icaritin were administered by tail intravenous injection with an administration volume of 10 ml/kg for each. Tegafur, Gimeracil and Oteracil Potassium Capsules was intragastrically administered with an administration volume of 40 ml/kg. Each group was administered once a day for totally 10 days. During the test, the animals were observed every day for their food and water uptake, survival conditions and behaviors, and measured for their body weights every day. After the test was ended, the mice were anaesthetized and anatomized. Blood was collected from abdominal aorta for routine blood test, and the total number of white blood cells, the total number of platelets and the total number of neutrophils were determined.

[2] = design: species or system Kunming mice; details: mouse, in vivo
Procedure: Mice ascites tumor s180 cells were conventionally incubated in 1640 culture medium, at 37° C., 5% CO2, and passaged once every two days in average. The cells in the logarithmic growth phase were prepared into a single-cell suspension having a density of 3.0×10^7 cells/ml with normal saline, which was injected into the abdominal cavities of mice under sterile conditions. Seven days after inoculation, significant swelling of the abdominal cavities of mice can be seen. As this time, the mice were executed by cervical vertebra luxation, put into a beaker containing 75% ethanol and soaked for 2-3 minutes. The sterilized mice were placed into an ultraclean bench, and the abdomens were exposed. The ascites was drawn with a sterile syringe and put into a sterile reagent bottle for further use. The above ascites was counted with trypan blue, diluted with normal saline to adjust to 2.0×10^7 cells/ml, and inoculated at the right armpit of the mice with 0.2 ml for each mouse.
The inoculated mice were randomly divided into 6 groups, with 10 animals in each group and half male and half female.
Docetaxel and icaritin were administered by tail intravenous injection with an administration volume of 10 ml/kg for each. Tegafur, Gimeracil and Oteracil Potassium Capsules was intragastrically administered with an administration volume of 40 ml/kg. Each group was administered once a day for totally 10 days. During the test, the animals were observed every day for their food and water uptake, survival conditions and behaviors, and measured for their body weights every day. After the test was ended, the mice were anaesthetized and anatomized. Blood was collected from abdominal aorta for routine blood test, and the total number of white blood cells, the total number of platelets and the total number of neutrophils were determined.

[3] = test system: model of thrombocytopenia induced by cyclophosphamide in mice; assay: Thrombocytopenia induced by cyclophosphamide in mice (platelets in peripheral blood); type: in vivo, Balb/C mice; details: cyclophosphamide 50 mg/kg ip model mice; 2 mg/kg sc once a day, 3 weeks; x ± s
Procedure: 72 Balb/C mice were selected, weighed, and randomly divided into 6 groups, i.e. the normal group, the model control group, the icariin group (positive control group), and the icaritin administration groups (high-, medium-, and low-dose groups), with 12 mice in each group. […] One week before starting to establish the model, each group was administered with the following therapeutic agents:
The normal group: administered subcutaneously with the same volume of normal saline;
The model control group: administered subcutaneously with the same volume of normal saline;
(§1) The icariin group: administered by subcutaneous injection with 2 mg/kg of icariin;
(§2) The high-dose icaritin group: administered by subcutaneous injection with 10 mg/kg of the icaritin injection of Example 11;
(§3) The medium-dose icaritin group: administered by subcutaneous injection with 5 mg/kg of the icaritin injection of Example 11;
(§4) The low-dose icaritin group: administered by subcutaneous injection with 1 mg/kg of the icaritin injection of Example 11.
Each group was administered once a day and fed normally. After consecutive administration for 3 weeks, the mice were anesthetized, and blood was sampled to measure the number of platelets and determine the effect of icaritin on the number of platelets (PLT) in the peripheral blood.

[4] = test system: active immune thrombocytopenia mice; assay: Active immune thrombocytopenia in mice (platelets in peripheral blood); type: in vivo, Balb/C mice; details: 2 mg/kg (table), intragastric once a day, x ± s
Procedure: 72 Balb/C mice were selected, weighed, and randomly divided into […] administration groups, i.e. the normal group, the model control group, the icariin group (positive control group), and the icaritin administration groups (high-, medium-, and low-dose groups), with 12 mice in each group. […] On the second day after the model was established, each group was administered with the following therapeutic agents: The normal group: administered intragastrically with the same volume of normal saline; The model control group: administered intragastrically with the same volume of normal saline; The […]: […]; The high-dose icaritin group: […] Example 9; The medium-dose icaritin group: […] Example 9; The low-dose icaritin group: […] Each of the administration groups was administered once a day and fed normally. After establishing the model three times, each administration group was continued to be administered for one week. The mice were anesthetized, and blood was sampled to measure the number of platelets and determine the effect of icaritin on the number of platelets (PLT) in the peripheral blood.

chronic ITP model rats = assay: Platelet count in chronic ITP model rats (anti-rat platelet serum); type: in vivo, Wistar rats; details: 2 mg/kg sc, 1 h after last administration
Procedure: Establishment of chronic ITP model: Wistar rats were selected to establish the model by injecting rabbit anti-rat platelet serum (APS). […] 50 Rats in which the model was successfully established were selected, weighed, and randomly divided into 5 groups, i.e. the model control group, the icariin group (positive control group), and the icaritin administration groups (high-, medium- and low-dose groups), with 10 rats in each group. The groups were administered with the following therapeutic agents, respectively.
The model control group: administered by subcutaneous injection with the same volume of normal saline;
as §1, §2, §3, §4
At 1 h after the last administration, blood was sampled from the venous plexus by inserting a disposable 20 μl blood collection tube into the inner canthus of the […].

normal mice [5] = assay: Clotting time in normal mice (capillary method); type: in vivo, Kunming mice; design: unit not given here; details: 2 mg/kg by injection, 3 days, 1 h after last administration
Procedure: 100 Kunming mice were randomly divided into 5 groups, i.e. the blank control group (normal saline group), the icariin group (positive control group), the high-dose icaritin group, the medium-dose icaritin group, and the low-dose icaritin group. Each group was administered as follows.
Blank control group: administered with the same volume of normal saline by subcutaneous injection;
Icariin group: administered with 2 mg/kg of icariin by injection;
High-dose icaritin group: administered with the injection of icaritin of Example 1 by subcutaneous injection at a dosage of 10 mg/kg;
Medium-dose icaritin group: administered with the injection of icaritin of Example 1 by subcutaneous injection at a dosage of 5 mg/kg;
Low-dose icaritin group: administered with the injection of icaritin of Example 1 by subcutaneous injection at a dosage of 1 mg/kg.
Measurement of the clotting time: The normal saline group (blank control group), the icariin group (positive control group), and the icaritin administration groups (high-, medium-, and low-dose groups) were designed as follows: 50 mice were selected, weighed and randomly divided into 5 groups, with 10 mice in each group. The animals were administered consecutively for 3 days. At 1 h after the last administration, blood was sampled from the venous plexus by inserting a disposable 20 μl blood collection tube into the inner canthus of the mouse to collect 20 μl of blood. A small fragment of capillary was broken off every 15 s for checking the occurrence of clotting filaments. The time from the blood sampling to the occurrence of fibrous protein filaments (clotting time) was recorded, and the results were shown in Table 5.

normal mice [6] = assay: Bleeding time in normal mice (tail tip cut); type: in vivo, Kunming mice; design: unit not given here; details: 2 mg/kg by injection, 3 days, 1 h after last administration
Procedure: 100 Kunming mice were randomly divided into 5 groups, i.e. the blank control group (normal saline group), the icariin group (positive control group), the high-dose icaritin group, the medium-dose icaritin group, and the low-dose icaritin group. Each group was administered as follows. Blank control group: administered with the same volume of normal saline by subcutaneous injection; Icariin group: administered with 2 mg/kg of icariin by injection; High-dose icaritin group: administered with the injection of icaritin of Example 1 by subcutaneous injection at a dosage of 10 mg/kg; Medium-dose icaritin group: administered with the injection of icaritin of Example 1 by subcutaneous injection at a dosage of 5 mg/kg; Low-dose icaritin group: administered with the injection of icaritin of Example 1 by subcutaneous injection at a dosage of 1 mg/kg. Measurement of the bleeding time: The normal saline group (blank control group), the icariin group (positive control group), and the icaritin administration groups (high-, medium-, and low-dose groups) were designed as follows: 50 mice were selected, weighed, and randomly divided into 5 groups, with 10 mice in each group. The animals were administered consecutively for 3 days. At 1 h after the last administration, a filter paper was rolled to form a filter paper cartridge with a diameter similar to that of the mouse body, which was closed at one end. The mouse was allowed to climb into the cartridge. Then about 3 mm of tail tip of the mouse was cut with scissors. A stopwatch was started to record the time when the bleeding started. The tail tip of the mouse was point-contacted with a filter paper gently every 15 s until there was no blood or no blood can be seen.

Compound	Neutrophils [1]	Platelets [1]	White blood cells [1]	Body weight Before Administration [2] [g]	PLT [3]	PLT [4]	Platelet count (chronic ITP model rats)	Clotting Time (normal mice [5])	Bleeding Time (normal mice [6])
CC(=O)O[C@@]12CO[C@@H]1C[C@H](O)[C@@]1(C)C(=O)[C@H](O)C3=C(C)[C@@H](OC(=O)[C@H](O)[C@@H](NC(=O)OC(C)(C)C)c4ccccc4)C[C@@](O)([C@@H](OC(=O)c4ccccc4)[C@H]21)C3(C)C [Docetaxel, reference compound]	0.670 ± 0.12 10^9/L	450.6 ± 30.5 10^9/L	2.773 ± 0.46 10^9/L	21.2 ± 1.8					
COc1ccc(-c2oc3c(CC=C(C)C)c(O[C@@H]4O[C@H](CO)[C@@H](O)[C@H](O)[C@H]4O)cc(O)c3c(=O)c2O[C@@H]2O[C@@H](C)[C@H](O)[C@@H](O)[C@H]2O)cc1 [Icariin, reference compound]					550.6 ± 90.1** 10^9/L	850.6 ± 90.1** 10^9/L	571.8 ± 60.6 ×10^9	4.28 ± 0.61	4.03 ± 0.45
Tegafur, Gimeracil and Oteracil Potassium Capsules				21.3 ± 2.3					

From patent US10799521B2, “Use of icaritin in preparing medicament for preventing or treating hematocytopenia” (Lunan Pharmaceutical Group Corporation, priority 2013, dated 2020)
